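Cells were grown in 96-well plates and exposed to each compound for 48 hours at five concentrations; endpoints were interpolated linearly between bracketing concentrations, or set to the highest concentration if not reached. GI50 marks 50% less growth. TGI: total growth inhibition.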 Where a SMILES comes first, the peptide text is derived from it. The star is where a group is joined. Boc = CC(C)(C)OC(=O)*; OBn = c1ccc(CO*)cc1 Bounds are passed on as bounds.

Some test systems named below: T-47D breast; MOLT-4 leukemia; BT-549 breast; SK-OV-3 ovarian; SW-620 colon; UO-31 renal; MALME-3M melanoma.
Test in all cases: NCI tumour cell line growth inhibition, 48 h

As for `c1ccc2c(c1)nc1n2CCSC1`, the TGI in the experiment on T-47D breast, in the experiment on MOLT-4 leukemia, in the experiment on BT-549 breast, in the experiment with SK-OV-3 ovarian, in the experiment with SW-620 colon and in the experiment on UO-31 renal was more than 100 µM throughout.
Turning to `COc1ccc2c(c1)/c(=C/c1ccc(N(C)C)cc1)c1cc(-c3ccccc3)[n+](C)n12`, the GI50 in the experiment with MOLT-4 leukemia was 0.142 µM. Further, the TGI with MOLT-4 leukemia stood at 4.92 µM; with SK-OV-3 ovarian it was 1.98 µM; in the experiment with SW-620 colon, 1.97 µM; in the experiment on UO-31 renal, 3.28 µM.
Consider `O=S1(=O)c2ccccc2NC(=S)CC1c1ccccc1` (stereo not drawn), for which the TGI in the experiment on T-47D breast, in the experiment with MOLT-4 leukemia, in the experiment on BT-549 breast, with MALME-3M melanoma, in the experiment on SK-OV-3 ovarian and in the experiment on UO-31 renal was more than 100 µM each time.
As to `Cc1ccc(-c2n[nH]c(=O)[nH]2)cc1[N+](=O)[O-]`, the TGI with T-47D breast, in the experiment on MOLT-4 leukemia, with BT-549 breast, in the experiment with MALME-3M melanoma, in the experiment on SW-620 colon and with UO-31 renal was more than 100 µM in each case.
Consider `COc1ccc(C2C(C#N)=C(S)N(C3OC(CO)C(O)C(O)C3O)C(c3ccccc3)=C2C(C)=O)cc1` (stereo not drawn), for which the TGI is 69.9 µM with T-47D breast; more than 100 µM in the experiment with MOLT-4 leukemia; more than 100 µM with BT-549 breast; more than 100 µM with MALME-3M melanoma; more than 100 µM with SW-620 colon; more than 100 µM in the experiment on UO-31 renal.
As for `CC(C)(C)OC(=O)NC(Cc1ccccc1)C(=O)NC(Cc1ccccc1)C(=O)NCC(=O)OCc1ccccc1` (stereo not drawn) (Boc-Phe-Phe-Gly-OBn; configuration not given here), the TGI with T-47D breast is more than 100 µM; with MOLT-4 leukemia it was 56 µM; with MALME-3M melanoma, more than 100 µM; in the experiment on SK-OV-3 ovarian, 46 µM; in the experiment with SW-620 colon, 28.4 µM; with UO-31 renal it was more than 100 µM.
With `CCc1c(C)c(C#N)c(=S)n(C2OC(CO)C(O)C(O)C2O)c1C` (stereo not drawn), the TGI in the experiment on T-47D breast, in the experiment on MOLT-4 leukemia, in the experiment with MALME-3M melanoma, in the experiment on SK-OV-3 ovarian, in the experiment with SW-620 colon and in the experiment on UO-31 renal was more than 100 µM in each case.
`COc1c2cc(C(C)(C)C)cc1Cc1cccc(c1O)Cc1cc(C(C)(C)C)cc(c1OC)Cc1cccc(c1O)Cc1cc(C(C)(C)C)cc(c1OC)Cc1cccc(c1O)C2`: the TGI in the experiment on T-47D breast, in the experiment with MOLT-4 leukemia, in the experiment with MALME-3M melanoma, in the experiment with SW-620 colon and in the experiment with UO-31 renal was more than 100 µM in each case.
`O=C(CNc1ccc(Cl)cc1Cl)NC1C=Cc2ccc(S(=O)(=O)Nc3ccc(Cl)cc3Cl)cc2C1=O` (stereo not drawn): the TGI in the experiment with MOLT-4 leukemia, with BT-549 breast, with MALME-3M melanoma, with SK-OV-3 ovarian, with SW-620 colon and with UO-31 renal was more than 100 µM throughout.
`CCO/C(O)=C(/C(=N)N1CCCC1)C(=O)Nc1cccc(C(F)(F)F)c1`: the TGI with T-47D breast, with MOLT-4 leukemia, in the experiment with BT-549 breast, with MALME-3M melanoma, with SK-OV-3 ovarian and in the experiment on SW-620 colon was more than 100 µM each time.
For the compound `O=C1c2cccc3cccc(c23)C(=O)N1CCCNOCCONCCCN1C(=O)c2cccc3cccc(c23)C1=O`, the TGI in the experiment on MOLT-4 leukemia, in the experiment with BT-549 breast, with MALME-3M melanoma, in the experiment on SK-OV-3 ovarian, with SW-620 colon and in the experiment with UO-31 renal was more than 100 µM each time.
For `CCCCOCn1c(=O)[nH]c(=O)c2cc(Br)ccc21`, the TGI in the experiment on MOLT-4 leukemia is more than 100 µM; in the experiment with SK-OV-3 ovarian, more than 100 µM; in the experiment on SW-620 colon, more than 100 µM; in the experiment with UO-31 renal, 52.6 µM.
Regarding `c1ccc2c(Cc3nnc4sc(SSc5nn6c(Cc7c[nH]c8ccccc78)nnc6s5)nn34)c[nH]c2c1`, the TGI in the experiment on T-47D breast was more than 100 µM; in the experiment with MOLT-4 leukemia it was 70.6 µM; with MALME-3M melanoma, 78.7 µM; in the experiment on SK-OV-3 ovarian, more than 100 µM; in the experiment on SW-620 colon it was 37.6 µM; with UO-31 renal it was 46.7 µM.
On to `COC(=O)C1(Cc2ccccc2)Cc2ccccc2C1`, for which the TGI was 90.8 µM with T-47D breast; 41.8 µM with MOLT-4 leukemia; 35.4 µM in the experiment with MALME-3M melanoma; more than 100 µM in the experiment with SK-OV-3 ovarian; more than 100 µM in the experiment on SW-620 colon; 55.9 µM in the experiment on UO-31 renal.
As for `O=C1/C(=C2\Sc3c(ccc(Cl)c3Cl)C2=O)Sc2c1ccc(Cl)c2Cl`, the TGI in the experiment with T-47D breast, in the experiment with MOLT-4 leukemia, in the experiment on BT-549 breast, in the experiment on MALME-3M melanoma, with SW-620 colon and with UO-31 renal was more than 100 µM throughout.
`CC(=O)O[C@H]1C(=O)[C@@]2(C)[C@H]([C@H](OC(=O)c3ccccc3)[C@]3(O)C[C@H](OC(=O)[C@H](O)[C@@H](NC(=O)CC(C)(C)C)c4ccccc4)C(C)=C1C3(C)C)C1(OC(C)=O)CO[C@@H]1C[C@@H]2O` (stereo partly drawn): the TGI was more than 10 µM in the experiment with T-47D breast; more than 3.96 µM in the experiment on MOLT-4 leukemia; more than 10 µM with BT-549 breast; more than 10 µM with SK-OV-3 ovarian; more than 10 µM in the experiment on SW-620 colon; more than 10 µM with UO-31 renal.
Take `CC(C)N(C)C(=O)C12C3C4C1C1C2C3C41C#N` (stereo not drawn): the TGI in the experiment on T-47D breast, in the experiment on MOLT-4 leukemia, with BT-549 breast, in the experiment on SW-620 colon and in the experiment with UO-31 renal was more than 100 µM throughout.
Turning to `COc1cc(/C=C2\CCC(C)C3=C2NC(=S)NC3c2cc(OC)c(OC)c(OC)c2)cc(OC)c1OC` (stereo not drawn), the TGI with MOLT-4 leukemia was 92.4 µM; in the experiment with SK-OV-3 ovarian, more than 100 µM; in the experiment with SW-620 colon it was more than 100 µM; with UO-31 renal, 66 µM.
Take `O=c1[nH]c2cc3[nH]c4ncccc4c(=O)c3cc2[nH]1`: the TGI with T-47D breast, in the experiment on MOLT-4 leukemia, with BT-549 breast, with MALME-3M melanoma, in the experiment with SK-OV-3 ovarian and in the experiment with SW-620 colon was more than 10 µM throughout.
Consider `Cc1ccc(S(=O)(=O)c2c(O)c3ccccc3n(C)c2=O)cc1`, for which the TGI in the experiment on T-47D breast, in the experiment with BT-549 breast, with MALME-3M melanoma, in the experiment with SK-OV-3 ovarian, in the experiment with SW-620 colon and in the experiment on UO-31 renal was more than 100 µM in each case.

These data come from PubChem BioAssay (NCI).
